The compounds below were run against T1, mouse CB1R (Mus musculus, UniProt P47746) (assay: [35S]GTPγS binding assay in mouse cerebellum membranes). Settings: mouse cerebellum membrane; [CP] = 100 nM; read-out: mCB1R GTPγS IC50.
T1 construct: membranes (10 μg protein) from either ICR mouse cerebellum mice; from tissue; host or cells: cerebellum membranes of ICR mice
Format: biochemical
Description: (§1) [^35S]GTPγS Binding Assay: For receptor signaling, membranes (10 μg protein) from either ICR mouse cerebellum mice (6-8 weeks old; Enviga
(§2) Non-specific binding was determined by adding 30 μM unlabeled GTPyS. Concentration response curves for allosteric modulators were conducted in the presence of CP55,940 (100 nM or 1 μM) to calculate 1050 values.
(§3) For [^35S]GTPyS experiments, data were normalized to maximal CP55,940 (100 nM) stimulation in the absence of test compound (i.e., vehicle=100%).
Select compounds were evaluated in the CP55,940-induced [^35S]GTPyS binding assays using mouse cerebellum membrane at two CP55,940 concentrations, 100 nM and 1μM.

T1 sequence (P47746 whole entry): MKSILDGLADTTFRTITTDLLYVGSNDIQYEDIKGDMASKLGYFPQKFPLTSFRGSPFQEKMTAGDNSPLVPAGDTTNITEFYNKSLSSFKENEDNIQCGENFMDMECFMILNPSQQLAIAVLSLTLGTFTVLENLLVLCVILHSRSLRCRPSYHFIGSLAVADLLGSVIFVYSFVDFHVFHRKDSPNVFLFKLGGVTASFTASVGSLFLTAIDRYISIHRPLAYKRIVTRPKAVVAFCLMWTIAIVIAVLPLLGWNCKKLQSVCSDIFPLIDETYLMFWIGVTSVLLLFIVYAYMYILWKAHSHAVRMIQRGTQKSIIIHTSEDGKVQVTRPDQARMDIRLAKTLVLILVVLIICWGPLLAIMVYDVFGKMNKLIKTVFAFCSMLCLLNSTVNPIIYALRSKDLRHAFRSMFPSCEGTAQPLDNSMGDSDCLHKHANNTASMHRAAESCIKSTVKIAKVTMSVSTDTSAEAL

Row | Structure (SMILES) | IC50 [nM]
1 | O=C(Nc1ccc(Cl)cc1)Nc1ccc(-c2ccc(F)cc2)s1 [Compound 18, 1-(4-Chlorophenyl)-3-[5-(4-fluorophenyl)thiophen-2-yl]urea] | 174

Same assay, conditions: mouse cerebellum membrane; [CP] = 1 uM; read-out: mCB1R GTPγS IC50

Row | Structure (SMILES) | IC50 [nM]
2 | O=C(Nc1ccc(Cl)cc1)Nc1ccc(-c2ccc(F)cc2)s1 [Compound 18, 1-(4-Chlorophenyl)-3-[5-(4-fluorophenyl)thiophen-2-yl]urea] | 145

What follows are compounds tested against T2, hCB1R (Homo sapiens, UniProt P21554) (assay: Calcium mobilization assay, antagonist mode against CP55,940). Settings: CHO cells expressing human CB1R; against CP55,940 (100 nM); mean ± SEM; read-out: hCB1R Calcium assay IC50.
T2 sequence (P21554 whole entry): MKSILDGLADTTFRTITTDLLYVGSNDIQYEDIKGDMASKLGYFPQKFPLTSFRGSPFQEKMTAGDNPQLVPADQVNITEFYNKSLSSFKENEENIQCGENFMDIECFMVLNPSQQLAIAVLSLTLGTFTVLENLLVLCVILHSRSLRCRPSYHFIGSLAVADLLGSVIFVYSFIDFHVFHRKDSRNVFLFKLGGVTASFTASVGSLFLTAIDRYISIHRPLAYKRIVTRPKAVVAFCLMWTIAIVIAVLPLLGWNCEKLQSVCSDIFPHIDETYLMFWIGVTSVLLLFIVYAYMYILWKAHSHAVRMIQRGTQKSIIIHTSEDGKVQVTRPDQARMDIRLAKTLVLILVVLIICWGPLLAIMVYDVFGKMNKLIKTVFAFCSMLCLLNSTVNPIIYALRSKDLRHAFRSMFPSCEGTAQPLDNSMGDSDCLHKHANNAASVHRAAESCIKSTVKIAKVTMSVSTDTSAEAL
Format: cell-based
Parameters: expressed in transfected cells; host or cells: CHO-RD-HGA16 cells (parental line from Molecular Devices)

Row | Structure (SMILES) | IC50 [nM]
3 | Cc1cccc(-c2ccc(NC(=O)Nc3ccc(Cl)cc3)s2)c1 [Compound 32, 1-(4-Chlorophenyl)-3-[5-(3-methylphenyl)thiophen-2-yl]urea] | 48 ± 8
4 | O=C(Nc1ccc(Cl)cc1)Nc1ccc(-c2ccc(F)cc2)s1 [Compound 18, 1-(4-Chlorophenyl)-3-[5-(4-fluorophenyl)thiophen-2-yl]urea] | 40 ± 2
5 | CC(=O)c1cccc(-c2ccc(NC(=O)Nc3ccc(Cl)cc3)s2)c1 [Compound 26, 3-[5-(3-Acetylphenyl)thiophen-2-yl]-1-(4-chlorophenyl)urea] | 108 ± 17
6 | COc1ccccc1-c1ccc(NC(=O)Nc2ccc(Cl)cc2)s1 [Compound 29, 1-(4-Chlorophenyl)-3-[5-(2-methoxyphenyl)thiophen-2-yl]urea] | 58
7 | O=C(Nc1ccc(Cl)cc1)N[C@@H]1C[C@@H]1c1ccccc1 (relative stereo) [Compound 16, cis-1-(4-Chlorophenyl)-3-(2-phenylcyclopropyl)urea] | > 10000
8 | O=C(Nc1ccc(Cl)cc1)Nc1ncc(-c2ccccc2)s1 [Compound 14, 1-(4-Chlorophenyl)-3-(5-phenyl-1,3-thiazol-2-yl)urea] | 79 ± 10
9 | O=C(Nc1ccc(Cl)cc1)Nc1ccc(-c2cccc(F)c2)s1 [Compound 19, 1-(4-Chlorophenyl)-3-[5-(3-fluorophenyl)thiophen-2-yl]urea] | 39 ± 6
10 | CS(=O)(=O)c1cccc(-c2ccc(NC(=O)Nc3ccc(Cl)cc3)s2)c1 [Compound 28, 1-(4-Chlorophenyl)-3-[5-(3-methanesulfonylphenyl)thiophen-2-yl]urea] | 501 ± 58
11 | O=C(Nc1ccc(Cl)cc1)Nc1ccc(-c2cccnc2)s1 [Compound 34, 1-(4-Chlorophenyl)-3-[5-(pyridin-3-yl)thiophen-2-yl]urea] | 107 ± 6

Each compound was assayed against T2, hCB1R (assay: Intrinsic activity: basal [35S]GTPγS binding in the absence of CP55,940). Settings: up to 10 μM.
Format: biochemical

Row | Structure (SMILES) | inverse agonism (in words)
12 | O=C(Nc1ccc(Cl)cc1)Nc1ncc(-c2ccccc2)s1 [Compound 14, 1-(4-Chlorophenyl)-3-(5-phenyl-1,3-thiazol-2-yl)urea] | some degree of inverse agonism

These compounds were tested against T2, hCB1R (assay: [35S]GTPγS binding assay in HEK cells stably expressing human CB1R). Settings: [CP] = 100 nM, mean (95% confidence interval), read-out: hCB1R [35S]GTPγS binding assay IC50.
Format: biochemical
Parameters: expressed in transfected cells; host or cells: HEK (HEK293) cells, membranes
Description: as §1, §2, §3

Row | Structure (SMILES) | IC50 [nM]
13 | Cc1cccc(-c2ccc(NC(=O)Nc3ccc(Cl)cc3)s2)c1 [Compound 32, 1-(4-Chlorophenyl)-3-[5-(3-methylphenyl)thiophen-2-yl]urea] | 1180
14 | O=C(Nc1ccc(Cl)cc1)Nc1ccc(-c2ccc(F)cc2)s1 [Compound 18, 1-(4-Chlorophenyl)-3-[5-(4-fluorophenyl)thiophen-2-yl]urea] | 537
15 | CC(=O)c1cccc(-c2ccc(NC(=O)Nc3ccc(Cl)cc3)s2)c1 [Compound 26, 3-[5-(3-Acetylphenyl)thiophen-2-yl]-1-(4-chlorophenyl)urea] | 3430
16 | COc1ccccc1-c1ccc(NC(=O)Nc2ccc(Cl)cc2)s1 [Compound 29, 1-(4-Chlorophenyl)-3-[5-(2-methoxyphenyl)thiophen-2-yl]urea] | 2020
17 | O=C(Nc1ccc(Cl)cc1)N[C@@H]1C[C@@H]1c1ccccc1 (relative stereo) [Compound 16, cis-1-(4-Chlorophenyl)-3-(2-phenylcyclopropyl)urea] | > 10000
18 | O=C(Nc1ccc(Cl)cc1)Nc1ncc(-c2ccccc2)s1 [Compound 14, 1-(4-Chlorophenyl)-3-(5-phenyl-1,3-thiazol-2-yl)urea] | 604
19 | O=C(Nc1ccc(Cl)cc1)Nc1ccc(-c2cccc(F)c2)s1 [Compound 19, 1-(4-Chlorophenyl)-3-[5-(3-fluorophenyl)thiophen-2-yl]urea] | 425
20 | CS(=O)(=O)c1cccc(-c2ccc(NC(=O)Nc3ccc(Cl)cc3)s2)c1 [Compound 28, 1-(4-Chlorophenyl)-3-[5-(3-methanesulfonylphenyl)thiophen-2-yl]urea] | 3230
21 | O=C(Nc1ccc(Cl)cc1)Nc1ccc(-c2cccnc2)s1 [Compound 34, 1-(4-Chlorophenyl)-3-[5-(pyridin-3-yl)thiophen-2-yl]urea] | 298

Source: patent US20220332695A1, “UREA DERIVATIVES AS CB1 ALLOSTERIC MODULATORS” (RTI INTERNATIONAL, priority 2019, published 2022)
